Experimental findings from US6861442B1, “PYK2 and inflammation” (Sugen, Inc., priority 1998, dated 2005) are described below.

For one test, the target named is T1, Pyk2 (Mus musculus, UniProt Q9QVP9).
T1 construct: abrogates the function of the endogenous wild-type PYK2 protein in these macrophages; endogenous in cells; host or cells: P388D1 murine macrophage cell line
Kind of test: Tyrosine phosphorylation of Pyk2 in response to LPS stimulation in P388D1 cells (anti-Pyk2 IP, anti-phosphotyrosine 4G10 western blot). The class given is cell-based, murine. The conditions noted are these: P388D1 cells pre-treated 4 hours, then stimulated with LPS for 30 minutes. Here is the method:
FIGS. 6a and 6b show the tyrosine phosphorylation of PYK2 in macrophage cell lines in response to LPS (lipopolysaccharide) and tyrosine kinase inhibitors. Cells were either starved overnight in 0.5% serum and stimulated with LPS for variable time intervals (FIG. 6a), or were pre-treated with either herbimycin A or genestein for 4 hours and then stimulated with LPS for 30 minutes (FIG. 6b). After stimulation, cells were washed, lysed, and immunoprecipitated with anti-PYK2 antibody. Immunoprecipitates (IP) were then analyzed by western blotting.
Cells were lysed in lysis buffer containing 50 mM N-2-hydroxyethylpiperazine-N′-2-ethanesulferic acid (HEPES pH 7.5), 150 mM NaCl, 10% glycerol, 1% Triton X-100, 1.5 mM MgCl2, 1 mM ethyleneglycol-bis (β-aminoethyl ether)-N,N,N′N′-tetraacetic acid (EGTA), 10 μg leupeptin per mL, 10 μg aprotinin per mL, 1 mM phenylmethylsulfonyl fluoride (PMSF), 200 μM sodium orthovanadate and 100 mM sodium fluoride. […] The washed immunoprecipitates were incubated for 5 min with gel sample buffer at 100° C. and analyzed by sodium dodecyl sulfate polyacrylamide gel electrophoresis (SDS-PAGE). […]
Tyrosine phosphorylation of Pyk2 in response to LPS stimulation was measured in P388D1 cells. […] Immuno-precipitates were then analyzed by western blotting. Tyrosine phosphorylated bands were detected with the anti-phosphotyrosine antibody 4G10. […]

A further test deals with P388D1 cells. The test can be described thus: TNF-α secretion by P388D1 macrophage clones measured by ELISA. The class given is cell-based, murine. The following applies: for Secretion of TNF-α: P388D1 cells stimulated with LPS or PMA; for Secretion of TNF-α caused by the stimulus: 1 μg/mL, overnight (18 hours), P388D1 doxycycline inducible clones. From the text:
FIGS. 8a, 8b, 8c, and 8d compare the secretion of TNF-α by wild-type and kinase mutant P388D1 cells in response to activators of macrophage function or PYK2 activity. FIGS. 8a and 8b show the effect of LPS in the presence and absence of DOX on TNF-α secretion from kinase mutant (dominant negative; FIG. 8a) and wild-type (FIG. 8b) cells. FIGS. 8c and 8d show the effect of PMA in the presence and absence of DOX on TNF-α secretion from kinase mutant (FIG. 8c) and wild-type (FIG. 8d) cells. Induction of P388D1 cells in the presence of doxicycline was carried out for 48 hours followed by stimulation with LPS (1 μg/mL) or PMA (1 μg/mL) for 18 hrs. Secreted TNF-α was measured by ELISA.
TNF secretion in response to stimulation with either LPS (1 μg/mL) or PMA (1 μg/mL) by the doxycycline inducible clones is shown in FIG. 8. Induction in the presence of doxycycline was carried out for 48 hours followed by stimulation with LPS or PMA overnight (18 hours). […] Secreted TNF-α was measured by ELISA. […] Secretion of TNF-α was inhibited by herbimycin A and genestein, which are non-specific inhibitors of tyrosine phosphorylation.

For the next test, the system named is wild type macrophages. Kind of test: Cytoplasmic calcium release in single Fura-2 loaded adherent macrophages. The class given is cell-based, mice. The conditions noted are these: wild type macrophages attached to cover slips. The method, then: Cells grown in 6-well plates were labeled for 24 h in medium-199 containing myo-[^3H]inositol(20 μCi/ml). The cells were washed once with PBS and pre-incubated for 10 min. in 2 ml of PBS containing 10 mM LiCl (PH 7.4) at 37° C. prior to the addition of chemokines. The cells were extracted with methanol/1M HCl/chloroform 1:1:1 and analyzed by high-performance liquid chromatography (HPLC) as described (Falasca, et al. (1998) EMBO J. 17:414-422). [Ca^2+] i measurements were performed in single macrophages as described (Falasca, et al. 1995).
Calcium plays an important role in the control of a variety of intracellular events as well as in the control of cell shape, and cell movement (Lawson and Maxfield, 1995). We therefore measured cytoplasmic calcium release in single cells in response to MIP1α stimulation by using quantitative fluorescence microscopy of Fura-2 loaded cells. […] Defect in calcium release may contribute towards the failure of the cells to detach at the rear end leading to impairment in cell migration since proteins that regulate the degradation of focal contact components and disassembly of F-actin require calcium for their action (Witke, et al. (1995) Cell 81:41-51; Kulkarni, et al. (1999) J. Biol Chem. 274:21265-21275).

T1 sequence (Q9QVP9 whole entry): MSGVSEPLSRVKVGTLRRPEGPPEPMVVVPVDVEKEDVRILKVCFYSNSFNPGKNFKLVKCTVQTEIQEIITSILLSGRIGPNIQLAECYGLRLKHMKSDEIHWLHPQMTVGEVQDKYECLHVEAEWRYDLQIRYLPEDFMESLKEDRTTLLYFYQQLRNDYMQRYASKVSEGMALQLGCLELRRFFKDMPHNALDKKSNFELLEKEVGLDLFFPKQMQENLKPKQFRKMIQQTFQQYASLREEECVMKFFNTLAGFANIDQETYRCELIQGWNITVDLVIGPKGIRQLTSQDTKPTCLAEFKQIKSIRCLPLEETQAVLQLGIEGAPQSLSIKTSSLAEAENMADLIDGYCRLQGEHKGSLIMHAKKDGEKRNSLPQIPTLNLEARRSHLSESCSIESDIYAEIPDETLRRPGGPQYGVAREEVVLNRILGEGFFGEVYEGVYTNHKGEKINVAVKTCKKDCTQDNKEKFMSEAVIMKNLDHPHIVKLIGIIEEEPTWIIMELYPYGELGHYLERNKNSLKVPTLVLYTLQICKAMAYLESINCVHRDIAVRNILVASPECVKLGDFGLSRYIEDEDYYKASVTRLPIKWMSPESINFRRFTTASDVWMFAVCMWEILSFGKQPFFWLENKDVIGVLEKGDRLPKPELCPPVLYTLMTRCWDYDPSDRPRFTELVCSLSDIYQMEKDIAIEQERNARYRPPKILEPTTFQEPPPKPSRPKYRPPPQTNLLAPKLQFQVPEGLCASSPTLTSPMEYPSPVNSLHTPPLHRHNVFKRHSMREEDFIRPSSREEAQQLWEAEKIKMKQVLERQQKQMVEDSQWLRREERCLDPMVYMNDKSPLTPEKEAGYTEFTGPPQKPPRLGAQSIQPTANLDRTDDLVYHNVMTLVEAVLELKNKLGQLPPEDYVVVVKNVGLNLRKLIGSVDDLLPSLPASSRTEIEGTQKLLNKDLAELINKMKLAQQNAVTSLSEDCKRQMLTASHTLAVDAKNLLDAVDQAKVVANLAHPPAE

On to `CO[C@H]1[C@@H](OC)C[C@H](C)[C@@H](OC)C2=CC(=O)C=C(NC(=O)/C(C)=C/C=C\[C@H](OC)[C@@H](OC(N)=O)/C(C)=C/[C@@H]1C)C2=O` [herbimycin A], for which the “Tyrosine phosphorylation of Pyk2” value on Pyk2 was “diminished”. Moreover, the “Secretion of TNF-α” value in the test with P388D1 cells is “inhibited”.
For `O=c1c(-c2ccc(O)cc2)coc2cc(O)cc(O)c12` [genestein], on Pyk2, the “Tyrosine phosphorylation of Pyk2” value was “diminished”. Besides, in the test with P388D1 cells, the “Secretion of TNF-α” value is given as “inhibited”.
On to `CCCCCCCCCCCCCC(=O)O[C@@H]1[C@@H](C)[C@@]2(O)[C@@H](C=C(CO)C[C@]3(O)C(=O)C(C)=C[C@@H]23)[C@@H]2C(C)(C)[C@]12OC(C)=O` [PMA, phorbol 12-myristate 13-acetate], for which the “Secretion of TNF-α caused by the stimulus” value with P388D1 cells is on record as “caused secretion of TNF-α”.
Still for that read-out and setting: to lipopolysaccharide [LPS] belongs “caused secretion of TNF-α”.
With “MIP1α: chemokine used to stimulate macrophages”, the “Maximum increase in cytoplasmic [Ca+2] concentration” value with wild type macrophages is recorded as “approximately 300 nM”.
